According to publication PMC3395807 (Journal of Medicinal Chemistry, 2012):
“Also recorded” adds a separate entry of the source.

What was measured:
[1] = MTT cytotoxicity assay in BHK cells; settings: hamster
rat plasma protein = test: Rat plasma protein binding
human plasma protein = test: Human plasma protein binding
DENV [2] = test: DENV virus yield reduction assay in BHK cells; assay type: cell-based, dengue virus (serotype 2, New Guniea C strain); settings: 0.8 to 20 μM, Figure 5B
DENV [3] = test: DENV in-cell western assay in Huh7.5 cells; assay type: cell-based, dengue virus; settings: DENV infected Huh7.5 cells, side-by-side comparison, Figure 5A
mouse plasma protein = test: Mouse plasma protein binding
[4] = tested on: human CYP450s (1A2, 2C9, 2C19, 2D6, and 3A4); test: Inhibition of five major human CYP450s; settings: 10 μM
DENV [5] = settings: DENV infected AG129 mice; cited from earlier work

OC[C@@H]1[C@@H](O)[C@H](O)[C@@H](O)CN1CC/C=C\CCOc1cc(F)ccc1F [Compound 5c, (2R,3R,4R,5S)-1-((Z)-6-(2,5-Difluorophenoxy)hex-3-en-1-yl)-2-(hydroxymethyl)piperidine-3,4,5-triol]
CC50 [1]: > 500 µM

Cc1cccc(OCCCCCCN2C[C@H](O)[C@@H](O)[C@H](O)[C@H]2CO)c1 [Compound 3c]
Rat Plasma Protein Binding (rat plasma protein): 79 % bound
Human Plasma Protein Binding (human plasma protein): 80 % bound

OC[C@@H]1[C@@H](O)[C@H](O)[C@@H](O)CN1CCCCCCOc1cccc(C(F)(F)F)c1 [Compound 3p]
Rat Plasma Protein Binding (rat plasma protein): 90 % bound
Human Plasma Protein Binding (human plasma protein): 93 % bound

OC[C@@H]1[C@@H](O)[C@H](O)[C@@H](O)CN1CCCCCCOc1cc(F)ccc1F [Compound 3l, (2R,3R,4R,5S)-1-(6-(2,5-Difluorophenoxy)hexyl)-2-(hydroxymethyl)piperidine-3,4,5-triol]
reduction of DENV titers (DENV [2]): being the most potent
antiviral activity in in-cell western assay (DENV [3]): much improved antiviral activity compared to compound 7; also recorded: the most potent one
Rat Plasma Protein Binding (rat plasma protein): 68 % bound
Human Plasma Protein Binding (human plasma protein): 74 % bound
Mouse Plasma Protein Binding (mouse plasma protein): 77 % bound

CCCOc1cccc(CCCN2C[C@H](O)[C@@H](O)[C@H](O)[C@H]2CO)c1 [Compound 4b, (2R,3R,4R,5S)-2-(Hydroxymethyl)-1-(3-(3-propoxyphenyl)propyl)piperidine-3,4,5-triol]
antiviral activity in in-cell western assay (DENV [3]): much improved antiviral activity compared to compound 7
Rat Plasma Protein Binding (rat plasma protein): 57 % bound
Human Plasma Protein Binding (human plasma protein): 68 % bound
inhibition on any of the five major drug metabolizing human CYP450s [4]: no inhibition

CCCC(CCC)OCCCCCCN1C[C@H](O)[C@@H](O)[C@H](O)[C@H]1CO [Compound 1c]
Rat Plasma Protein Binding (rat plasma protein): 77 % bound
Human Plasma Protein Binding (human plasma protein): 91 % bound

OC[C@@H]1[C@@H](O)[C@H](O)[C@@H](O)CN1CCCCCCOc1cccc(F)c1 [Compound 3j, (2R,3R,4R,5S)-1-(6-(3-Fluorophenoxy)hexyl)-2-(hydroxymethyl)piperidine-3,4,5-triol]
antiviral activity in in-cell western assay (DENV [3]): much improved antiviral activity compared to compound 7
Rat Plasma Protein Binding (rat plasma protein): 71 % bound
Human Plasma Protein Binding (human plasma protein): 78 % bound
Mouse Plasma Protein Binding (mouse plasma protein): 79 % bound
inhibition on any of the five major drug metabolizing human CYP450s [4]: no inhibition

CCC(O)(CC)CCCCCCN1C[C@H](O)[C@@H](O)[C@H](O)[C@H]1CO [Compound 7, (2R,3R,4R,5S)-1-(7-Ethyl-7-hydroxynonyl)-2-(hydroxymethyl)piperidine-3,4,5-triol]
in vivo antiviral efficacy (viremia) (DENV [5]): reducing viremia
Rat Plasma Protein Binding (rat plasma protein): 30 % bound
Human Plasma Protein Binding (human plasma protein): 33 % bound

COc1ccccc1OCCCCCCN1C[C@H](O)[C@@H](O)[C@H](O)[C@H]1CO [Compound 3s]
Rat Plasma Protein Binding (rat plasma protein): 70 % bound
Human Plasma Protein Binding (human plasma protein): 65 % bound
inhibition on any of the five major drug metabolizing human CYP450s [4]: no inhibition

OC[C@@H]1[C@@H](O)[C@H](O)[C@@H](O)CN1CCCCCCOC1CCCCCC1 [Compound 2l, (2R,3R,4R,5S)-1-(6-(Cycloheptyloxy)hexyl)-2-(hydroxymethyl)piperidine-3,4,5-triol]
antiviral activity in in-cell western assay (DENV [3]): much improved antiviral activity compared to compound 7
Rat Plasma Protein Binding (rat plasma protein): 65 % bound
Human Plasma Protein Binding (human plasma protein): 71 % bound

OC[C@@H]1[C@@H](O)[C@H](O)[C@@H](O)CN1CCCCCCOCc1ccccc1 [Compound 3v, (2R,3R,4R,5S)-1-(6-(Benzyloxy)hexyl)-2-(hydroxymethyl)piperidine-3,4,5-triol]
antiviral activity in in-cell western assay (DENV [3]): much improved antiviral activity compared to compound 7
Rat Plasma Protein Binding (rat plasma protein): 49 % bound
Human Plasma Protein Binding (human plasma protein): 52 % bound
inhibition on any of the five major drug metabolizing human CYP450s [4]: no inhibition
